Experimental data reported in patent publication US9999222B2, “Herbicidal combination comprising azines” (BASF SE, priority 2014, dated 2018).
Like-named read-outs stand apart in the source and are kept apart here.

Key:
Experiment in all cases: Greenhouse test, pre-emergence treatment
POLCO = format: in vivo, Polygonum convolvulus; details: Fallopia convolvulus, pre-emergence, 480 h; for inhibition at 6.25 g/ha: use rate 6.25 g ai/ha
In short: (§1)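 Seeds were sown in loamy sand with about 3.0% humus, and compounds in water were sprayed immediately after sowing, alone or as combinations formulated as 10% emulsion concentrates. Plants grew under hoods until rooted, at 10-25 °C or 20-35 °C by species, for 2 to 4 weeks. Damage was scored 0-100 (100 = no emergence or complete destruction), and Colby expected values were E=X+Y−(X·Y/100).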

ECHCG = format: in vivo, Echinocloa crus-galli; details: Echinochloa crus-galli, 480 h, ECHCG, use rate 3.125 g ai/ha, 20 DAT, read-out: observed % activity 20 DAT
In short: as §1

GERPU = format: in vivo, Geranium pusillum; details: Geranium pusillum, pre-emergence, 480 h, 20 DAT, read-out: observed % activity
In short: as §1

GALAP = format: in vivo, Galium aparine; details: Galium aparine, pre-emergence, 480 h, pre-emergence, read-out: observed % activity 20 DAT
In short: as §1

ELEIN = format: in vivo, Eleusine indica; details: Eleusine indica, 480 h, read-out: observed % activity 20 DAT
Description: The culture containers used were plastic flowerpots containing loamy sand with approximately 3.0% of humus as the substrate. The seeds of the test plants were sown separately for each species.
For the pre-emergence treatment, the active ingredients, which had been suspended or emulsified in water, were applied directly after sowing by means of finely distributing nozzles. The containers were irrigated gently to promote germination and growth and subsequently covered with transparent plastic hoods until the plants had rooted. This cover caused uniform germination of the test plants, unless this had been impaired by the active ingredients.
Depending on the species, the plants were kept at 10-25° C. or 20-35° C., respectively.
The test period extended over 2 to 4 weeks. During this time, the plants were tended, and their response to the individual treatments was evaluated.
Evaluation was carried out using a scale from 0 to 100. 100 means no emergence of the plants, or complete destruction of at least the aerial moieties, and 0 means no damage, or normal course of growth. A moderate herbicidal activity is given at values of at least 60, a good herbicidal activity is given at values of at least 70, and a very good herbicidal activity is given at values of at least 85.
The respective stated components a and b, and if appropriate, c were formulated as a 10% by weight strength emulsion concentrate and, with addition of the amount of solvent system, introduced into the spray liquor used for applying the active compound.
In the examples, the solvent used was water.
In the examples below, using the method of S. R. Colby (1967) “Calculating synergistic and antagonistic responses of herbicide combinations”, Weeds 15, p. 22ff., the value E, which is expected if the activity of the individual active compounds is only additive, was calculated. E=X+Y−(X·Y/100) where • X=percent activity using active compound a at an application rate A; • Y=percent activity using active compound b at an application rate B; • E=expected activity (in %) by a+b at application rates A+B.
If the value found experimentally is higher than the value E calculated according to Colby, a synergistic effect is present.

LOLMU = format: in vivo, Lolium multiflorum; details: Lolium multiflorum, pre-emergence, 480 h, LOLMU, pre-emergence, individual, use rate 6.25 g ai/ha; read-out: observed % activity 20 DAT
In short: as §1

EPHHL = format: in vivo, Euphorbia heterophylla; details: Euphorbia heterophylla, pre-emergence, 480 h, 20 DAT, read-out: observed % activity
In short: as §1

SIDRH = format: in vivo, Sida rhombifolia; details: Sida rhombifolia, pre-emergence, 480 h
In short: as §1

COMBE = format: in vivo, Commelina benghalensis; details: Commelina benghalensis, pre-emergence, 480 h
In short: as §1

KCHSC = format: in vivo, Kochia scoparia
In short: as §1

ALOMY = format: in vivo, Alopecurus myosuroides; details: Alopecurus myosuroides, pre-emergence, 480 h, ALOMY, pre-emergence, read-out: observed % activity 20 DAT
In short: as §1

BRADC = format: in vivo, Brachiaria decumbens; details: Urochloa decumbens, pre-emergence, 480 h, pre-emergence, 36 g ai/ha; read-out: observed % activity 20 DAT
In short: as §1

SETFA = format: in vivo, Setaria faberi; details: Setaria faberi, 480 h, SETFA, individual, read-out: observed % activity 20 DAT
In short: as §1

[1] = 5 g ai/ha, 20 DAT, read-out: observed % activity
[2] = 10 g ai/ha, 20 DAT, read-out: observed % activity
[3] = 10 g ai/ha, read-out: observed % activity 20 DAT

Q: With `CC(C)N(C)S(=O)(=O)NC(=O)c1cc(-n2c(=O)cc(C(F)(F)F)n(C)c2=O)c(F)cc1Cl` [Saflufenacil, saflufenacil] as the compound, how does the inhibition at 5 g/ha (POLCO; [1]) read?
A: 60%

Q: What about the inhibition at 10 g/ha (POLCO; [2]) of the same compound?
A: 65%

Q: What about the inhibition at 6.25 g/ha (POLCO; POLCO, individual, read-out: observed % activity 20 DAT) of the same compound?
A: 70%

Q: What about the inhibition at 10 g/ha (POLCO; POLCO, individual, use rate 10 g ai/ha, read-out: observed % activity 20 DAT) of the same compound?
A: 25%

Q: What about the inhibition at 12.5 g/ha (POLCO; POLCO, individual, use rate 12.5 g ai/ha, read-out: observed % activity 20 DAT) of the same compound?
A: 85%

Q: And the inhibition at 10 g/ha (POLCO; [3])?
A: 25%

Q: What about the inhibition at 6.25 g/ha (POLCO; POLCO, 20 DAT, read-out: observed % activity 20 DAT) of the same compound?
A: 70%

Q: What about the inhibition at 3.125 g/ha (ECHCG) of the same compound?
A: 0%

Q: And the inhibition at 5 g/ha (GERPU; 5 g ai/ha)?
A: 25%

Q: And the inhibition at 10 g/ha (GERPU; 10 g ai/ha)?
A: 25%

Q: And the inhibition at 5 g/ha (GALAP; GALAP, individual, use rate 5 g ai/ha)?
A: 25%

Q: And the inhibition at 10 g/ha (GALAP; GALAP, individual, use rate 10 g ai/ha)?
A: 50%

Q: And the inhibition at 5 g/ha (GALAP; 5 g ai/ha)?
A: 25%

Q: What about the inhibition at 10 g/ha (GALAP; 10 g ai/ha) of the same compound?
A: 50%

Q: And the inhibition at 18 g/ha (ELEIN; 18 g ai/ha)?
A: 35%

Q: What about the inhibition at 36 g/ha (ELEIN; 36 g ai/ha) of the same compound?
A: 95%

Q: And the inhibition at 6.25 g/ha (LOLMU)?
A: 0%

Q: And the inhibition at 5 g/ha (EPHHL; 5 g ai/ha)?
A: 80%

Q: What about the inhibition at 10 g/ha (EPHHL; 10 g ai/ha) of the same compound?
A: 95%

Q: And the inhibition at 5 g/ha (SIDRH; [1])?
A: 55%

Q: What about the inhibition at 10 g/ha (SIDRH; [2]) of the same compound?
A: 90%

Q: What about the inhibition at 10 g/ha (SIDRH; SIDRH, individual, use rate 10 g ai/ha, read-out: observed % activity 20 DAT) of the same compound?
A: 20%

Q: What about the inhibition at 10 g/ha (SIDRH; [3]) of the same compound?
A: 20%

Q: What about the inhibition at 5 g/ha (COMBE; [1]) of the same compound?
A: 65%

Q: And the inhibition at 10 g/ha (COMBE; [2])?
A: 98%

Q: What about the inhibition at 5 g/ha (COMBE; COMBE, individual, use rate 5 g ai/ha, read-out: observed % activity 20 DAT) of the same compound?
A: 0%

Q: And the inhibition at 10 g/ha (COMBE; COMBE, individual, use rate 10 g ai/ha, read-out: observed % activity 20 DAT)?
A: 15%

Q: What about the inhibition at 5 g/ha (COMBE; 5 g ai/ha, read-out: observed % activity 20 DAT) of the same compound?
A: 0%

Q: What about the inhibition at 10 g/ha (COMBE; [3]) of the same compound?
A: 15%

Q: And the observed % activity (KCHSC; 5 g ai/ha, 20 DAT)?
A: 85%

Q: What about the inhibition at 5 g/ha (KCHSC; Bassia scoparia, pre-emergence, 480 h, 5 g ai/ha, 20 DAT, read-out: observed % activity) of the same compound?
A: 70%

Q: What about the inhibition at 5 g/ha (KCHSC; Bassia scoparia, pre-emergence, 480 h, KCHSC, pre-emergence, individual, use rate 5 g ai/ha, read-out: observed % activity 20 DAT) of the same compound?
A: 70%

Q: What about the inhibition at 6.25 g/ha (KCHSC; Bassia scoparia, pre-emergence, 480 h, KCHSC, pre-emergence, individual, use rate 6.25 g ai/ha, read-out: observed % activity 20 DAT) of the same compound?
A: 30%

Q: What about the inhibition at 10 g/ha (KCHSC; Bassia scoparia, pre-emergence, 480 h, KCHSC, pre-emergence, individual, use rate 10 g ai/ha, read-out: observed % activity 20 DAT) of the same compound?
A: 65%

Q: And the inhibition at 12.5 g/ha (KCHSC; Bassia scoparia, pre-emergence, 480 h, KCHSC, pre-emergence, individual, use rate 12.5 g ai/ha, read-out: observed % activity 20 DAT)?
A: 70%

Q: And the inhibition at 5 g/ha (KCHSC; Bassia scoparia, pre-emergence, 480 h, pre-emergence, 5 g ai/ha, read-out: observed % activity 20 DAT)?
A: 70%

Q: What about the inhibition at 10 g/ha (KCHSC; Bassia scoparia, pre-emergence, 480 h, pre-emergence, 10 g ai/ha, read-out: observed % activity 20 DAT) of the same compound?
A: 65%

Q: And the inhibition at 6.25 g/ha (ALOMY; individual, use rate 6.25 g ai/ha)?
A: 0%

Q: And the inhibition at 12.5 g/ha (ALOMY; individual, use rate 12.5 g ai/ha)?
A: 0%

Q: What about the inhibition at 3.125 g/ha (ALOMY; use rate 3.125 g ai/ha, 20 DAT) of the same compound?
A: 0%

Q: And the inhibition at 36 g/ha (BRADC)?
A: 90%

Q: And the inhibition at 6.25 g/ha (SETFA; use rate 6.25 g ai/ha)?
A: 0%

Q: What about the inhibition at 12.5 g/ha (SETFA; use rate 12.5 g ai/ha) of the same compound?
A: 0%
